The source of these data is article PMC5191990 (Bioorganic & medicinal chemistry, 2016).

Data set [1] relates to Parental OVCAR-8 cells. Kind of data set: Cell proliferation. It is filed as cell-based. The note with it: Homo sapiens, OVCAR-8, 96 h, read-out: Parental OVCAR-8 IC50 (µM) ± SD.
Data set [2] has as its target T1, purified bovine brain tubulin (Bos taurus, UniProt P81947+Q6B856). Kind of data set: Tubulin assembly assay. It is filed as biochemical. Conditions: ratio of tubulin assembly IC50 vs 5.
In data set [3] the test system is β-III overexpressing HeLa cells. The experiment in a line: Cell proliferation. It is filed as cell-based.
Data set [4] relates to WT HeLa cells. Kind of data set: Cell proliferation. The note with it: Homo sapiens, 96 h, read-out: WT HeLa IC50 (µM) ± SD. It is filed as cell-based.
Data set [5] addresses T1, purified bovine brain tubulin. Conditions: read-out: tubulin assembly IC50 (µM) ± SD; cited from earlier work.
The subject of data set [6] is BLBC MDA-MB-435 and U251 glioma xenografts, 4T1 triple negative breast allograft. The note with it: cited from earlier work.
Data set [7] concerns Pgp overexpressing NCI/ADR-RES cells. Kind of data set: Cell proliferation. It is filed as cell-based. Conditions: Homo sapiens, 96 h, read-out: Pgp overexpressing NCI/ADR-RES IC50 (µM) ± SD.

The structures appear in SMILES notation. Structures can show the parent of a compound that is named as a salt.

T1 sequence (P81947 whole entry): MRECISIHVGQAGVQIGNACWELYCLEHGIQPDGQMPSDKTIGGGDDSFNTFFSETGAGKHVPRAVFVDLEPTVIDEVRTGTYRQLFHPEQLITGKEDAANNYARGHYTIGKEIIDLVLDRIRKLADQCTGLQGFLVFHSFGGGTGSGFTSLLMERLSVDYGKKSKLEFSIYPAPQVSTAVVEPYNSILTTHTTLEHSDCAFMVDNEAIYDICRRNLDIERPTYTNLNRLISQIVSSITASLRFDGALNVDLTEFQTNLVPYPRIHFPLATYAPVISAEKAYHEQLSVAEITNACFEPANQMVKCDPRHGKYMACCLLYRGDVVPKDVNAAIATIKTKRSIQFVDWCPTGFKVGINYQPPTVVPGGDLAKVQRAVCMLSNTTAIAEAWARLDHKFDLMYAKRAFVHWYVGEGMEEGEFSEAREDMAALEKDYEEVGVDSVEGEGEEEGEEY
T1 sequence (Q6B856 whole entry): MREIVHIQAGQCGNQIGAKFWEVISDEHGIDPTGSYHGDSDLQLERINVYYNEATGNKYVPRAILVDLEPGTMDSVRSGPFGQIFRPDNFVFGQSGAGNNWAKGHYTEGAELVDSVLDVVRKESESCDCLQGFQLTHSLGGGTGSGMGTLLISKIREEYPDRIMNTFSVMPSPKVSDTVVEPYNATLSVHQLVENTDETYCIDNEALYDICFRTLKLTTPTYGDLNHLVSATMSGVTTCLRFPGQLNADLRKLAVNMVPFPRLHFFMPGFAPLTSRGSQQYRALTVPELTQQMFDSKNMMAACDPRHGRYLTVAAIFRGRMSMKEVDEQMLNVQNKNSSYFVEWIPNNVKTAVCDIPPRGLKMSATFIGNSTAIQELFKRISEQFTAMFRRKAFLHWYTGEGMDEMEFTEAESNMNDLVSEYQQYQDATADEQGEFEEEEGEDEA

For `COc1ccc2c(c1)CCCN2c1nc(C)nc2c(Cc3ccccc3)c[nH]c12` [5·HCl, 1-(7-benzyl-2-methyl-5H-pyrrolo[3,2-d]pyrimidin-4-yl)-6-methoxy-1,2,3,4-tetrahydroquinoline hydrochloride], the IC50 in data set [1] is 0.12 ± 0.004 µM.

Turning to `COc1ccc(N(C)c2nc(C)nc3c(Cc4ccccc4)cn(C)c23)cc1.Cl` [7·HCl, 7-benzyl-N-(4-methoxyphenyl)-N,2,5-trimethyl-5H-pyrrolo[3,2-d]pyrimidin-4-amine hydrochloride], in data set [2], the “fold more potent than 5 in tubulin assembly” value is given as approximately 7 fold. For the same compound, in data set [3] (isogenic HeLa cell line pair), the “fold less potent in βIII-tubulin overexpressing HeLa than in wild type HeLa” value is on record as “equal potency”.

Consider `COc1ccc(/C=C\c2cc(OC)c(OC)c(OC)c2)cc1O` [CA, combretastatin A-4], for which the IC50 in data set [4] was determined as 0.0018 ± 0.0004 µM.

As to `COc1ccc(N(C)c2nc(C)nc3c(Cc4ccccc4)c[nH]c23)cc1` [Compound 3], in data set [5], the IC50 was 21 ± 1 µM. Further, in data set [6], the toxicity to animals entry is reported as “without overt toxicity”. In addition, the “tumor size and vascularity” value in data set [6] (two flank xenograft models and 4T1 orthotopic allograft) was “reduced tumor size and vascularity”.

For the compound `CC(=O)O[C@H]1C(=O)[C@@]2(C)[C@H]([C@H](OC(=O)c3ccccc3)[C@]3(O)C[C@H](OC(=O)[C@H](O)[C@@H](NC(=O)c4ccccc4)c4ccccc4)C(C)=C1C3(C)C)[C@]1(OC(C)=O)CO[C@@H]1C[C@@H]2O` [Paclitaxel, paclitaxel], the IC50 amounted to 0.016 ± 0.001 µM in data set [3] (Homo sapiens, HeLa, 96 h, read-out: β-III overexpressing HeLa IC50 (µM) ± SD); 0.005 ± 0.001 µM in data set [1]; 2.5 µM in data set [7].
